# Assay results as given in PubChem BioAssay AID1259407 (Chemical Carcinogenesis Research Information System (CCRIS), 2018).
# The source made the active and inactive calls. The rule behind the calls is not given here.
# System: CCRIS mutagenicity, Ames/micronucleus/aberration tests
# Test: CCRIS mutagenicity studies
# [1] = Test System: AMES SALMONELLA TYPHIMURIUM, Strain/Indicator: TA100, Metabolic Activation: NONE, Method: PREINCUBATION
compound,measurement,setting,value
COc1c(C(=O)O)c(=O)[nH]c2ccccc12,mutagenic call,"Test System: AMES SALMONELLA TYPHIMURIUM, Strain/Indicator: TA98, Metabolic Activation: NONE, Method: STANDARD PLATE",inactive; negative
same,mutagenic call,"Test System: AMES SALMONELLA TYPHIMURIUM, Strain/Indicator: TA98, Metabolic Activation: RAT LIVER S-9, PHENOBARTITAL, Method: STANDARD PLATE",inactive; negative
O=[N+]([O-])c1ccccc1Nc1ccccc1,mutagenic call,"Test System: AMES SALMONELLA TYPHIMURIUM, Strain/Indicator: TA97, Metabolic Activation: HAMSTER, LIVER, S-9, AROCLOR 1254 (5, 10 OR 30%), Method: PREINCUBATION",inactive; negative
same,mutagenic call,"Test System: AMES SALMONELLA TYPHIMURIUM, Strain/Indicator: TA97, Metabolic Activation: NONE, Method: PREINCUBATION",inactive; negative
same,mutagenic call,"Test System: AMES SALMONELLA TYPHIMURIUM, Strain/Indicator: TA97, Metabolic Activation: RAT, LIVER, S-9, AROCLOR 1254 (10%), Method: PREINCUBATION",inactive; negative
same,mutagenic call,"Test System: AMES SALMONELLA TYPHIMURIUM, Strain/Indicator: TA97, Metabolic Activation: RAT, LIVER, S-9, AROCLOR 1254 (30%), Method: PREINCUBATION",inactive; negative
same,mutagenic call,"Test System: AMES SALMONELLA TYPHIMURIUM, Strain/Indicator: TA98, Metabolic Activation: HAMSTER, LIVER, S-9, AROCLOR 1254 (10%), Method: PREINCUBATION",inactive; negative
same,mutagenic call,"Test System: AMES SALMONELLA TYPHIMURIUM, Strain/Indicator: TA98, Metabolic Activation: HAMSTER, LIVER, S-9, AROCLOR 1254 (30%), Method: PREINCUBATION",inactive; negative
same,mutagenic call,"Test System: AMES SALMONELLA TYPHIMURIUM, Strain/Indicator: TA98, Metabolic Activation: NONE, Method: PREINCUBATION",inactive; negative
same,mutagenic call,"Test System: AMES SALMONELLA TYPHIMURIUM, Strain/Indicator: TA98, Metabolic Activation: RAT, LIVER, S-9, AROCLOR 1254 (10%), Method: PREINCUBATION",inactive; negative
same,mutagenic call,"Test System: AMES SALMONELLA TYPHIMURIUM, Strain/Indicator: TA98, Metabolic Activation: RAT, LIVER, S-9, AROCLOR 1254 (30%), Method: PREINCUBATION",inactive; negative
same,mutagenic call,"Test System: AMES SALMONELLA TYPHIMURIUM, Strain/Indicator: TA100, Metabolic Activation: HAMSTER, LIVER, S-9, AROCLOR 1254 (10%), Method: PREINCUBATION",inactive; negative
same,mutagenic call,"Test System: AMES SALMONELLA TYPHIMURIUM, Strain/Indicator: TA100, Metabolic Activation: HAMSTER, LIVER, S-9, AROCLOR 1254 (30%), Method: PREINCUBATION",inactive; negative
same,mutagenic call,[1],inactive; negative
same,mutagenic call,"Test System: AMES SALMONELLA TYPHIMURIUM, Strain/Indicator: TA100, Metabolic Activation: RAT, LIVER, S-9, AROCLOR 1254 (10%), Method: PREINCUBATION",inactive; negative
same,mutagenic call,"Test System: AMES SALMONELLA TYPHIMURIUM, Strain/Indicator: TA100, Metabolic Activation: RAT, LIVER, S-9, AROCLOR 1254 (30%), Method: PREINCUBATION",inactive; negative
same,mutagenic call,"Test System: AMES SALMONELLA TYPHIMURIUM, Strain/Indicator: TA1535, Metabolic Activation: HAMSTER, LIVER, S-9, AROCLOR 1254 (10%), Method: PREINCUBATION",inactive; negative
same,mutagenic call,"Test System: AMES SALMONELLA TYPHIMURIUM, Strain/Indicator: TA1535, Metabolic Activation: HAMSTER, LIVER, S-9, AROCLOR 1254 (30%), Method: PREINCUBATION",inactive; negative
same,mutagenic call,"Test System: AMES SALMONELLA TYPHIMURIUM, Strain/Indicator: TA1535, Metabolic Activation: NONE, Method: PREINCUBATION",inactive; negative
same,mutagenic call,"Test System: AMES SALMONELLA TYPHIMURIUM, Strain/Indicator: TA1535, Metabolic Activation: RAT, LIVER, S-9, AROCLOR 1254 (10%), Method: PREINCUBATION",inactive; negative
same,mutagenic call,"Test System: AMES SALMONELLA TYPHIMURIUM, Strain/Indicator: TA1535, Metabolic Activation: RAT, LIVER, S-9, AROCLOR 1254 (30%), Method: PREINCUBATION",inactive; negative
CCCCN(C(CCC)OC(C)=O)[N+](=O)[O-] (stereo not given),mutagenic call,"Test System: E. COLI, Strain/Indicator: WP2 (HCR-), Metabolic Activation: NONE",active; positive
O=C(O)c1ccc([N+](=O)[O-])cc1[N+](=O)[O-],mutagenic call,"End Point: In vitro chromosomal aberrations, Test System: V79 Chinese hamster fibroblasts, Metabolic Activation: None",active; positive (structural changes)
same,mutagenic call,"End Point: In vitro micronucleus, Test System: HepG2 human hepatoma cells, Metabolic Activation: None",active; positive
same,mutagenic call,"Test System: AMES SALMONELLA TYPHIMURIUM, Strain/Indicator: TA98, Metabolic Activation: RAT, LIVER, S-9, AROCLOR, Method: PREINCUBATION",active; positive
same,mutagenic call,"Test System: AMES SALMONELLA TYPHIMURIUM, Strain/Indicator: TA98, Metabolic Activation: RAT, LIVER, S-9, KANECHLOR 500, Method: PREINCUBATION",inactive; negative
same,mutagenic call,"Test System: AMES SALMONELLA TYPHIMURIUM, Strain/Indicator: TA100, Metabolic Activation: RAT, LIVER, S-9, KANECHLOR 500, Method: PREINCUBATION",inactive; negative
same,mutagenic call,"Test System: Ames Salmonella typhimurium, Strain/Indicator: TA98, Metabolic Activation: None, Method: Standard plate",active; positive
same,mutagenic call,"Test System: Ames Salmonella typhimurium, Strain/Indicator: TA98, Metabolic Activation: Rat, Liver, S-9, Method: Standard plate",active; positive
same,mutagenic call,"Test System: Ames Salmonella typhimurium, Strain/Indicator: TA98NR, Metabolic Activation: None, Method: Standard plate","active; positive, ta98nr is the nitroreductase-deficient derivative of ta98."
same,mutagenic call,"Test System: Ames Salmonella typhimurium, Strain/Indicator: TA100, Metabolic Activation: None, Method: Standard plate",inactive; negative
same,mutagenic call,"Test System: Ames Salmonella typhimurium, Strain/Indicator: TA100, Metabolic Activation: Rat, Liver, S-9, Method: Standard plate",inactive; negative
O=C(Nc1ccc2c(c1)C=C(S(=O)(=O)O)/C(=N/Nc1ccc(N=Nc3ccc(S(=O)(=O)O)cc3)cc1S(=O)(=O)O)C2=O)Nc1ccc2c(c1)C=C(S(=O)(=O)O)/C(=N/Nc1ccc(N=Nc3ccc(S(=O)(=O)O)cc3)cc1S(=O)(=O)O)C2=O,mutagenic call,"Test System: MOUSE LYMPHOMA, Strain/Indicator: L5178Y (TK+/TK-), Metabolic Activation: NONE, Method: SUSPENSION/PLATE",inactive; negative. reevaluation of results: negative
same,mutagenic call,"Test System: MOUSE LYMPHOMA, Strain/Indicator: L5178Y (TK+/TK-), Metabolic Activation: RAT, LIVER, S-9, AROCLOR 1254, Method: SUSPENSION/PLATE",inactive; negative. reevaluation of results: negative
ClCC1(CCl)[C@H]2CC(Cl)(Cl)[C@]1(CCl)[C@@H](Cl)[C@@H]2Cl,mutagenic call,[1],inactive; negative
